In patent US20250312462A1, “PAK1 DEGRADERS AND METHODS OF USE THEREOF” (INSTITUTE FOR CANCER RESEARCH D/B/A THE RESEARCH INSTITUTE …, priority 2022, published 2025):
Where two headings read alike, the source gives them in different places.

Legend:
PHKG1 = PHKG1 (Homo sapiens, UniProt Q16816); assay: KINOMEscan; conditions: read-out: Percent Control
Method: (§4) The kinase engagement assay (KINOMEscan®) was performed by DiscoverX assessing binding abilities toward a set of kinases.

TIE2 = TIE2 (Homo sapiens, UniProt Q02763); assay: KINOMEscan; conditions: read-out: Percent Control
Method: as §4

IRAK4 = IRAK4 (Homo sapiens, UniProt Q9NWZ3); assay: KINOMEscan; conditions: read-out: Percent Control
Method: as §4

MRCKA = MRCKA (Homo sapiens, UniProt Q5VT25); assay: KINOMEscan; conditions: read-out: Percent Control
Method: as §4

STK16 = STK16 (Homo sapiens, UniProt O75716); assay: KINOMEscan; conditions: read-out: Percent Control
Method: as §4

ULK1 = ULK1 (Homo sapiens, UniProt O75385); assay: KINOMEscan; conditions: read-out: Percent Control
Method: as §4

MYO3B = MYO3B (Homo sapiens, UniProt Q8WXR4); assay: KINOMEscan; conditions: read-out: Percent Control
Method: as §4

LYN = LYN (Homo sapiens, UniProt P07948); assay: KINOMEscan; conditions: read-out: Percent Control
Method: as §4

STK33 = STK33 (Homo sapiens, UniProt Q9BYT3); assay: KINOMEscan; conditions: read-out: Percent Control
Method: as §4

ERBB2 = ERBB2 (Homo sapiens, UniProt P04626); assay: KINOMEscan; conditions: read-out: Percent Control
Method: as §4

LRRK2(G2019S) = LRRK2(G2019S) (Homo sapiens, UniProt Q5S007, G2019S); assay: KINOMEscan; conditions: read-out: Percent Control
Method: as §4

PIKFYVE = PIKFYVE (Homo sapiens, UniProt Q9Y2I7); assay: KINOMEscan; conditions: read-out: Percent Control
Method: as §4

ERBB4 = ERBB4 (Homo sapiens, UniProt Q15303); assay: KINOMEscan; conditions: read-out: Percent Control
ERBB4, sequence (Q15303 26-1308): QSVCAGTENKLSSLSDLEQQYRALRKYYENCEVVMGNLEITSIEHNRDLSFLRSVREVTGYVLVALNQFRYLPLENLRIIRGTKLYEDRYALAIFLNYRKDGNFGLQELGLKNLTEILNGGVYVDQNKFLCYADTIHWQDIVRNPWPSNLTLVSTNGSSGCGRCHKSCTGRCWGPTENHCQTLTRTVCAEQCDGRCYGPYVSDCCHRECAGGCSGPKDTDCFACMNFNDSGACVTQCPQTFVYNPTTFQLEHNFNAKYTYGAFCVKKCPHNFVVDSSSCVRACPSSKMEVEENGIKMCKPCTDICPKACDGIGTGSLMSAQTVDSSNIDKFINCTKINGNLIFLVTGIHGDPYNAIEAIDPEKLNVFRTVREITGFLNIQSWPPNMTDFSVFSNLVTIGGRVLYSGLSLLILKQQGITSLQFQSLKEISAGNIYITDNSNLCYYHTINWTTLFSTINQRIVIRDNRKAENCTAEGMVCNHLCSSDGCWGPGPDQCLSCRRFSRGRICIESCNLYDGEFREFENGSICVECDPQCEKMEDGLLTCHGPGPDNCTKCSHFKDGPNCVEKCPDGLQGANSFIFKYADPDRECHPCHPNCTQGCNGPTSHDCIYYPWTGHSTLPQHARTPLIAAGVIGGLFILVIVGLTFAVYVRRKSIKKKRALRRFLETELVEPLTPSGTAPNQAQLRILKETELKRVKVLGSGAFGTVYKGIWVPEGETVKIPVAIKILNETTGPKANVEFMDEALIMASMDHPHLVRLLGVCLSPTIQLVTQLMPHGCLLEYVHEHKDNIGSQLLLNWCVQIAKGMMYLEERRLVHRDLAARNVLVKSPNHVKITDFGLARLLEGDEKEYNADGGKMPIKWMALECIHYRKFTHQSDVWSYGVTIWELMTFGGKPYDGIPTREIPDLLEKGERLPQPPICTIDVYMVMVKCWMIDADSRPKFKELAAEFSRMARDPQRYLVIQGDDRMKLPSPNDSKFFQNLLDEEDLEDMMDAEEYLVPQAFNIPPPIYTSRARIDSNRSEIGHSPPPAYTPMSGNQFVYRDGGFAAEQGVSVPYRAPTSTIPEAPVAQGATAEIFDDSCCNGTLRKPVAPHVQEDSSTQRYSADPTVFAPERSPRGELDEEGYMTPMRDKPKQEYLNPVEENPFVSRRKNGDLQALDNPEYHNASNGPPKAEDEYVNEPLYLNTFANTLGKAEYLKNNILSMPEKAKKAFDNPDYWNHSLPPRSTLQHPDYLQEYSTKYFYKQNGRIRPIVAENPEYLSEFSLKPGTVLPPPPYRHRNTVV
Method: as §4

EPHA2 = EPHA2 (Homo sapiens, UniProt P29317); assay: KINOMEscan; conditions: read-out: Percent Control
EPHA2, sequence (P29317 24-976): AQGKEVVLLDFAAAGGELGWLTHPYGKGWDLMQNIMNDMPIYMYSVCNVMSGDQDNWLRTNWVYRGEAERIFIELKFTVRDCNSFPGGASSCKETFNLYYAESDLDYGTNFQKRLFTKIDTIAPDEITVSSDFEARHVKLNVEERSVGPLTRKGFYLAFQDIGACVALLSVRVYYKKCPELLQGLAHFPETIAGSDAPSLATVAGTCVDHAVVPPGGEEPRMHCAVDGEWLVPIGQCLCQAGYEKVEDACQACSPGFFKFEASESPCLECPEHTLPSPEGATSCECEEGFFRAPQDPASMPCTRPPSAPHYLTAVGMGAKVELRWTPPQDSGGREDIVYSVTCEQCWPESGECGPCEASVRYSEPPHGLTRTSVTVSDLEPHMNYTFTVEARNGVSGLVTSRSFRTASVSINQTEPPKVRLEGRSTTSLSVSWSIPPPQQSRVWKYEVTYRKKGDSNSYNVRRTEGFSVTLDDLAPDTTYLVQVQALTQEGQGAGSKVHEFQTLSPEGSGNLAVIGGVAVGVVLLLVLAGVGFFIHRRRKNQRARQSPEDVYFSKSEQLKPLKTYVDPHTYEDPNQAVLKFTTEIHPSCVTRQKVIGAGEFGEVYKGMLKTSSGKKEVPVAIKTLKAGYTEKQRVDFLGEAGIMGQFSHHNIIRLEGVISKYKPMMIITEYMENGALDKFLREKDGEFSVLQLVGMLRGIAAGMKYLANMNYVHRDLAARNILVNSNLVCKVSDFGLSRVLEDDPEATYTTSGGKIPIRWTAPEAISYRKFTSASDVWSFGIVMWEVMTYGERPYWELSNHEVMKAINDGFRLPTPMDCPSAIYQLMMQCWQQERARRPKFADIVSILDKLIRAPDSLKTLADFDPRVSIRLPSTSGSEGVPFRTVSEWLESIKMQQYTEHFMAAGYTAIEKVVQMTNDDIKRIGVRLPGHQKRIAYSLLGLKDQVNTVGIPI
Method: as §4

MAST1 = MAST1 (Homo sapiens, UniProt Q9Y2H9); assay: KINOMEscan; conditions: read-out: Percent Control
Method: as §4

ERK1 = ERK1 (Homo sapiens, UniProt P27361); assay: KINOMEscan; conditions: read-out: Percent Control
ERK1, sequence (P27361 whole entry): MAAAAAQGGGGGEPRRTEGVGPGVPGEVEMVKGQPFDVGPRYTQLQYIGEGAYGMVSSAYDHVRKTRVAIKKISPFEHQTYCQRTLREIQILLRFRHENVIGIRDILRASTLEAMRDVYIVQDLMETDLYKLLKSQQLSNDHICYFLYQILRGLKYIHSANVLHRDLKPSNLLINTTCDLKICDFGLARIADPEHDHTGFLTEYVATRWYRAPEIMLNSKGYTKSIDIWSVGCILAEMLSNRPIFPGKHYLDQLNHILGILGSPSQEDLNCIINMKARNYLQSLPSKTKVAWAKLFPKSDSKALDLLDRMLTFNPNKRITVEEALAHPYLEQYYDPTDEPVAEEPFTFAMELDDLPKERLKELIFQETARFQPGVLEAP
Method: as §4

MST4 = MST4 (Homo sapiens, UniProt Q9P289); assay: KINOMEscan; conditions: read-out: Percent Control
Method: as §4

ANKK1 = ANKK1 (Homo sapiens, UniProt Q8NFD2); assay: KINOMEscan; conditions: read-out: Percent Control
Method: as §4

LTK = LTK (Homo sapiens, UniProt P29376); assay: KINOMEscan; conditions: read-out: Percent Control
Method: as §4

PIK4CB = PIK4CB (Homo sapiens, UniProt Q9UBF8); assay: KINOMEscan; conditions: read-out: Percent Control
Method: as §4

TXK = TXK (Homo sapiens, UniProt P42681); assay: KINOMEscan; conditions: read-out: Percent Control
Method: as §4

EGFR = EGFR (Homo sapiens, UniProt P00533); assay: KINOMEscan; conditions: read-out: Percent Control
Method: as §4

FGFR3 = FGFR3 (Homo sapiens, UniProt P22607); assay: KINOMEscan; conditions: read-out: Percent Control
Method: as §4

NDR1 = NDR1 (Homo sapiens, UniProt Q15208); assay: KINOMEscan; conditions: read-out: Percent Control
Method: as §4

ERK3 = ERK3 (Homo sapiens, UniProt Q16659); assay: KINOMEscan; conditions: read-out: Percent Control
Method: as §4

RET(V804L) = RET(V804L) (Homo sapiens, UniProt P07949, V804L); assay: KINOMEscan; conditions: read-out: Percent Control
Method: as §4

BUB1 = BUB1 (Homo sapiens, UniProt O43683); assay: KINOMEscan; conditions: read-out: Percent Control
Method: as §4

QSK = QSK (Homo sapiens, UniProt Q9Y2K2); assay: KINOMEscan; conditions: read-out: Percent Control
Method: as §4

EPHA8 = EPHA8 (Homo sapiens, UniProt P29322); assay: KINOMEscan; conditions: read-out: Percent Control
Method: as §4

OMM1 cells = assay: Cell proliferation, MTT assay; type: cell-based; conditions: OMM1 cells (PAK2-dependent)
Method: (§1) Cell proliferation was assessed by MTT assay.
(§2) Cell viability was measured by MTT assay and the half maximal inhibitory concentration (IC50) was calculated using GraphPad Prism. Triplicates were performed for each sample and medium alone was used as a blank.
(§3) The anti-proliferative effects of PAK1 degradation and inhibition were evaluated.

MCF7 cells = assay: Cell proliferation, MTT assay; type: cell-based; conditions: Homo sapiens, MCF7, MCF7 cells, read-out: EC50, anti-proliferative
Method: as §1, §2, §3

Hey A8 cells = assay: Cell proliferation, MTT assay; type: cell-based
Method: as §1, §2, §3

DDR2 = DDR2 (Homo sapiens, UniProt Q16832); assay: KINOMEscan; conditions: read-out: Percent Control
Method: as §4

AAK1 = AAK1 (Homo sapiens, UniProt Q2M2I8); assay: KINOMEscan; conditions: read-out: Percent Control
AAK1, sequence (Q2M2I8 whole entry): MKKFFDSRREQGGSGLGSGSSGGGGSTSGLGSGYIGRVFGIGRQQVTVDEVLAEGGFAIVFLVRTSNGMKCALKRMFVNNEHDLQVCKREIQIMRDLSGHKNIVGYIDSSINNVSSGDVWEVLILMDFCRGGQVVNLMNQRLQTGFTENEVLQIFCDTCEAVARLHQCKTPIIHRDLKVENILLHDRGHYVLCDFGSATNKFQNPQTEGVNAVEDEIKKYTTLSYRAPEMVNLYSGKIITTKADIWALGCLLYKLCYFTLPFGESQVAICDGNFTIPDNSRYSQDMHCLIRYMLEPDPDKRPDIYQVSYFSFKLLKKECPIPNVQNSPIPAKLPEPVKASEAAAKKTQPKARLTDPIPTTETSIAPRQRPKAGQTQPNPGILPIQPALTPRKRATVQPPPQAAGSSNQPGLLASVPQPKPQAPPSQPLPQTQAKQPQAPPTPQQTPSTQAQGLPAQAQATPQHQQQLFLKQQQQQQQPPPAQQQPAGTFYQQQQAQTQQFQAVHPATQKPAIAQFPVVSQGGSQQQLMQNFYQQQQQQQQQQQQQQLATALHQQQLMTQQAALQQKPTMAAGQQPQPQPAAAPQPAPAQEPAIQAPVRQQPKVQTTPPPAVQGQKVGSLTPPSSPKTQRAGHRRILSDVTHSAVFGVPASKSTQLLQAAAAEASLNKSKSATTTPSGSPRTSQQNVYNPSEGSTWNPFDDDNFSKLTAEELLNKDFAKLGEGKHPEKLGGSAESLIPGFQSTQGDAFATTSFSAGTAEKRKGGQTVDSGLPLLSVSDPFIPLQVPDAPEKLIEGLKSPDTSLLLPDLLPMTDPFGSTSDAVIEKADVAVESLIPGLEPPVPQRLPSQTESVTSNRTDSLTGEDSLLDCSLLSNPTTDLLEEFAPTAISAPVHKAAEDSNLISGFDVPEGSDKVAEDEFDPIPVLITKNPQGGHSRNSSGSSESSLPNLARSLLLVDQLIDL
Method: as §4

IGF1R = IGF1R (Homo sapiens, UniProt P08069); assay: KINOMEscan; conditions: read-out: Percent Control
IGF1R, sequence (P08069 31-1367): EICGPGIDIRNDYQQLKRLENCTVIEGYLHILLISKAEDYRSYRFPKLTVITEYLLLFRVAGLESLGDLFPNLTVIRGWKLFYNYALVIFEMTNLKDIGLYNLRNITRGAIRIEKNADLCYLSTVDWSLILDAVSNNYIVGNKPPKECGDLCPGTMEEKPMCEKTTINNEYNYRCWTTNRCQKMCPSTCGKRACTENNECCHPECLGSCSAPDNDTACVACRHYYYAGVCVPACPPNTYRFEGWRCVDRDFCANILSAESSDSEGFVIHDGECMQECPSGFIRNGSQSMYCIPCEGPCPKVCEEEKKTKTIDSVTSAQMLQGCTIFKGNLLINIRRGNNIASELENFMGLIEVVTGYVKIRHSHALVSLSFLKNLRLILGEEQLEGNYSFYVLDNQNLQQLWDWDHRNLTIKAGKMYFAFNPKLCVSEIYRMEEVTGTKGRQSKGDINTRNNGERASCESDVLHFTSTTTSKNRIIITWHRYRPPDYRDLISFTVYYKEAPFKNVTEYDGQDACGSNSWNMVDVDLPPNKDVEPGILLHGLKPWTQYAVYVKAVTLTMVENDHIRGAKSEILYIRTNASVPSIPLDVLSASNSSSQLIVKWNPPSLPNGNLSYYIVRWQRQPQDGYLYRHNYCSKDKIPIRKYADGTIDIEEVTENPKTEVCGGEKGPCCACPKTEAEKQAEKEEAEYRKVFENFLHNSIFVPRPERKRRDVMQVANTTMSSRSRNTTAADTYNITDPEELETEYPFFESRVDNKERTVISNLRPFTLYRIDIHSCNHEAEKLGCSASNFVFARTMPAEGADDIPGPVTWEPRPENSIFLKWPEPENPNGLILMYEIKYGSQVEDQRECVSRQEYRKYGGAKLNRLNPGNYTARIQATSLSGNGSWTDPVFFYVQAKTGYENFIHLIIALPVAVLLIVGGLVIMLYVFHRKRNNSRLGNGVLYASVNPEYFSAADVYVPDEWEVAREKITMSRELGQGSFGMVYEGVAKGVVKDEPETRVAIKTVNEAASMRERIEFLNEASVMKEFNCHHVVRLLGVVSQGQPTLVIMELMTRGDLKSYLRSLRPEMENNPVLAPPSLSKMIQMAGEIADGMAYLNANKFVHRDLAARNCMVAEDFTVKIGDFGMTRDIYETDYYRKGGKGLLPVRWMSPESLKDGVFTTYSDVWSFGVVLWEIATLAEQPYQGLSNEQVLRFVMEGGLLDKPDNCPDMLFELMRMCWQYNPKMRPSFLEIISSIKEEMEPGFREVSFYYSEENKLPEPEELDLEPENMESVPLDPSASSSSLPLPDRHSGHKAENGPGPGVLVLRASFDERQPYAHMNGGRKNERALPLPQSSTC
Method: as §4

FLT3-autoinhibited = FLT3-autoinhibited (Homo sapiens, UniProt P36888); assay: KINOMEscan; conditions: read-out: Percent Control
Method: as §4

ACVR2B = ACVR2B (Homo sapiens, UniProt Q13705); assay: KINOMEscan; conditions: read-out: Percent Control
Method: as §4

O=C1CCC(N2C(=O)c3cccc(NCCCCCCCCNC(=O)N4CC[C@H](NC5=Nc6cc(F)ccc6N(CC(F)F)c6ccc(Cl)cc65)C4)c3C2=O)C(=O)N1 (stereo partly drawn) [BJG-05-039, (3S)-3-((2-Chloro-5-(2,2-difluoroethyl)-8-fluoro-5H-dibenzo[b,e][1,4]diazepin-11-yl)amino)-N-(8-((2-(2,6-dioxopiperidin-3-yl)-1,3-dioxoisoindolin-4-yl)amino)octyl)pyrrolidine-1-carboxamide]
remaining binding at 10 µM (PHKG1): 65% | remaining binding at 10 µM (TIE2): 98% | remaining binding at 10 µM (IRAK4): 100% | remaining binding at 10 µM (MRCKA): 63% | remaining binding at 10 µM (STK16): 62% | remaining binding at 10 µM (ULK1): 78% | remaining binding at 10 µM (MYO3B): 88% | remaining binding at 10 µM (LYN): 79% | remaining binding at 10 µM (STK33): 75% | remaining binding at 10 µM (ERBB2): 100% | remaining binding at 10 µM (LRRK2(G2019S)): 96% | remaining binding at 10 µM (PIKFYVE): 79% | remaining binding at 10 µM (ERBB4): 97% | remaining binding at 10 µM (EPHA2): 82% | remaining binding at 10 µM (MAST1): 71% | remaining binding at 10 µM (ERK1): 83% | remaining binding at 10 µM (MST4): 86% | remaining binding at 10 µM (ANKK1): 87% | remaining binding at 10 µM (LTK): 84% | remaining binding at 10 µM (PIK4CB): 78% | remaining binding at 10 µM (TXK): 90% | remaining binding at 10 µM (EGFR): 74% | remaining binding at 10 µM (FGFR3): 85% | remaining binding at 10 µM (NDR1): 86% | remaining binding at 10 µM (ERK3): 64% | remaining binding at 10 µM (RET(V804L)): 99% | remaining binding at 10 µM (BUB1): 73% | remaining binding at 10 µM (QSK): 78% | remaining binding at 10 µM (EPHA8): 84% | Effect on cell proliferation (OMM1 cells): Neither BJG-05-039 or NVS-PAK1-1 significantly affected cell proliferation | EC50 (OMM1 cells; OMM-1, read-out: EC50, anti-proliferative): 20.8 µM | EC50 (MCF7 cells; first statement of b311): 0.003 µM | EC50 (MCF7 cells; second listing of b311): 0.086 µM | Effect on cell proliferation (Hey A8 cells; HEY-A8 cells (PAK2-dependent)): Neither BJG-05-039 or NVS-PAK1-1 significantly affected cell proliferation | EC50 (Hey A8 cells; Hey A8 cells (PAK2-dependent), read-out: EC50, anti-proliferative): 36 µM | remaining binding at 10 µM (DDR2): 86% | remaining binding at 10 µM (AAK1): 48% | remaining binding at 10 µM (IGF1R): 70% | remaining binding at 10 µM (FLT3-autoinhibited): 100% | remaining binding at 10 µM (ACVR2B): 46%
